{"source": "paper PMC1197287", "about": "(PLoS Biology, 2005)", "key": {"CoVs": {"system": "CoVs", "conditions": "cited from earlier work"}, "rhinovirus": {"system": "rhinovirus", "design": "method as in PMID 14638501, PMID 11796347", "conditions": "intranasal suspension; cited from earlier work"}, "[1]": {"design": "method as in PMID 14638501, PMID 11796347", "conditions": "cited from earlier work"}, "[2]": {"design": "method as in PMID 14638501, PMID 11796347", "conditions": "cited from earlier work", "remark": "listed apart in the source"}, "[3]": {"design": "method as in PMID 14638501, PMID 11796347", "conditions": "in animals; cited from earlier work"}, "MHV-A59 [4]": {"system": "MHV-A59", "assay": "organism not typed", "type": "cell-based", "conditions": "14 h"}, "HCoV-229E M^pro": {"biological_target": "T1, HCoV-229E M^pro (Human coronavirus 229E, UniProt P0C6X1)", "T1 construct": "HCoV-229E M^pro (15 mg/ml; two amino acids deleted at C-terminal); made in house", "T1 sequence (P0C6X1 2966-3265 limits assumed)": "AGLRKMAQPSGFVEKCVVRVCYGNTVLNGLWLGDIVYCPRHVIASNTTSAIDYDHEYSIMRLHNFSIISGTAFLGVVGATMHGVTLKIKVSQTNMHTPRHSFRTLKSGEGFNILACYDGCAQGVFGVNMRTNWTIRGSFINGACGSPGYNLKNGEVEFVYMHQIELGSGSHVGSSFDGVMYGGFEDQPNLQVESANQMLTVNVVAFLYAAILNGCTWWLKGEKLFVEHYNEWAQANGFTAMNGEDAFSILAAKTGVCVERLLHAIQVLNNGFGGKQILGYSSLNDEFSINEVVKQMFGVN", "assay": "biochemical"}, "IBV M^pro": {"biological_target": "IBV M^pro (Avian infectious bronchitis virus, UniProt P0C6Y3)", "sequence (P0C6Y3 2782-3088)": "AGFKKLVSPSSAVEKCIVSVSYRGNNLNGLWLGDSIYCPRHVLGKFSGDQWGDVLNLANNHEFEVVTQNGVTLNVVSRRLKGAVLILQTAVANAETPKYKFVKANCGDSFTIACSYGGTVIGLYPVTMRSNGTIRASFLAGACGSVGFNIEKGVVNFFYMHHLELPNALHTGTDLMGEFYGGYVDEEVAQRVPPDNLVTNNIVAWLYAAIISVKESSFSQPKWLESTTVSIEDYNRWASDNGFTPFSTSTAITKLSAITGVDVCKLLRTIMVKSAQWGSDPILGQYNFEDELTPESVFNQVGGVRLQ", "assay": "biochemical"}, "FIPV": {"system": "FIPV", "assay": "microbe, parasite or virus in culture", "type": "cell-based, FIPV (strain 79–1146)", "conditions": "Alphacoronavirus 1, 14 h"}, "TGEV": {"system": "TGEV", "assay": "Cell-based assay of TGEV replication", "conditions": "cell-based assays; data to be published elsewhere"}, "DBT cells": {"system": "DBT cells", "assay": "Cytotoxicity assay (MTT)", "type": "cell-based, murine", "conditions": "500 μM, two days", "description": "DBT cells were suspended in growth medium in 96-well plates. The next day, appropriate concentrations of the inhibitor were added to the medium. Two days later, the relative numbers of surviving cells were measured by MTT (Sigma, St. Louis, Missouri, United States) assay in accordance with the manufacturer's instructions."}, "CoV M^pros": {"system": "CoV M^pros", "type": "biochemical"}, "SARS-CoV": {"system": "SARS-CoV", "conditions": "cell-based assays; data to be published elsewhere"}, "HCoV-229E": {"system": "HCoV-229E", "assay": "microbe, parasite or virus in culture", "type": "cell-based", "conditions": "Human coronavirus 229E, MRC5, 14 h"}, "TGEV M^pro": {"biological_target": "TGEV M^pro (Porcine transmissible gastroenteritis coronavirus, UniProt P0C6Y5)", "sequence (P0C6Y5 2879-3180)": "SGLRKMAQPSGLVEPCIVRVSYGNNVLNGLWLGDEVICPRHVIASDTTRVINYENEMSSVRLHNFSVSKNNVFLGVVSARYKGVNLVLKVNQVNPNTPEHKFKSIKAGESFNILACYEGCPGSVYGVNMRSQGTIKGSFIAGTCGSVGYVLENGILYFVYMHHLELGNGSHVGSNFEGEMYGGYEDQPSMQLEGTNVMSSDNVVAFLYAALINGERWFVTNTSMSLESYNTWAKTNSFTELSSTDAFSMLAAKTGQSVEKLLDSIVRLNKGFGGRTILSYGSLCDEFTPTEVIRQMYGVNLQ", "assay": "biochemical"}, "M^pro of HCoV-HKU1": {"biological_target": "M^pro of HCoV-HKU1 (Human coronavirus HKU1, UniProt P0C6X2)", "sequence (P0C6X2 3335-3637)": "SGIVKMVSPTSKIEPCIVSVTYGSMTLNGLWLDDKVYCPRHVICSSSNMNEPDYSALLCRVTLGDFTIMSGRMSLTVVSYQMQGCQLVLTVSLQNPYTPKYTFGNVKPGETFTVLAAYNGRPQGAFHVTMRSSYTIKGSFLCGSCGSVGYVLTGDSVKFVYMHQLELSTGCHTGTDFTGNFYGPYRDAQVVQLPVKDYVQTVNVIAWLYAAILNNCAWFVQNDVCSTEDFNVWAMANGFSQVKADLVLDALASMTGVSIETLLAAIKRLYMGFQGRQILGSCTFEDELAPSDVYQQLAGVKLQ", "type": "biochemical"}, "MHV-A59 [5]": {"system": "MHV-A59", "assay": "MHV-A59 plaque-reduction assay in DBT cells", "type": "cell-based", "description": "Murine DBT cells (generously provided by Dr. Lishan Su of University of North Carolina) were cultured in Dulbecco's modified Eagle's medium supplemented with 10% fetal bovine serum (FBS) and antibiotics at 37 °C in 5% CO2.\nDBT cells were suspended in growth medium in triplicate wells in 6-well plates and preincubated with appropriate concentrations of the inhibitor. The next day, the medium was aspirated, and MHV-A59 was added to each well at a titer of 100 PFU/well. After incubation for 1 h, the virus inoculum was aspirated, and 2 ml of a media-agar overlay with appropriate concentrations of inhibitor was added to each well. The plates were further incubated for 24 h and stained with neutral red to visualize plaques."}, "FIPV M^pro": {"biological_target": "FIPV M^pro (Feline coronavirus, UniProt Q98VG9)", "sequence (Q98VG9 2904-3205)": "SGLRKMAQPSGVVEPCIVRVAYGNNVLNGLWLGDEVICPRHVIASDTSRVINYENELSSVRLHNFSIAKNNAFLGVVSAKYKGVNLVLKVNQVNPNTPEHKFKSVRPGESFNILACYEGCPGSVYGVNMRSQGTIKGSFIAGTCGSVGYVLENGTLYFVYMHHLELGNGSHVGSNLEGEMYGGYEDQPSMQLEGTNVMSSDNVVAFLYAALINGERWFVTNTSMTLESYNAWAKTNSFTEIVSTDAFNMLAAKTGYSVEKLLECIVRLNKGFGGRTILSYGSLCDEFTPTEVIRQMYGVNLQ", "assay": "biochemical", "conditions": "pH 7.3, read-out: kobs/[I]"}, "SARS-CoV M^pro": {"biological_target": "SARS-CoV M^pro (Severe acute respiratory syndrome coronavirus, UniProt P0C6X7)", "assay": "biochemical"}, "M^pro of HCoV-NL63": {"biological_target": "M^pro of HCoV-NL63 (Human coronavirus NL63, UniProt P0C6X5)", "sequence (P0C6X5 2940-3242)": "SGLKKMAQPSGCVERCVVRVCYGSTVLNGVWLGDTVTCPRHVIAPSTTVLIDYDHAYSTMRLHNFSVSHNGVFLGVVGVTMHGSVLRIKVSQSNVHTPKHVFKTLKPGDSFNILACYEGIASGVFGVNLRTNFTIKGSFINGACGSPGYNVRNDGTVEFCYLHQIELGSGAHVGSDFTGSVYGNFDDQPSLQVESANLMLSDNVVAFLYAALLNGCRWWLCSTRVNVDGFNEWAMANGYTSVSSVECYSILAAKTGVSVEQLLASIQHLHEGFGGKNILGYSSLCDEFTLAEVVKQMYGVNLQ", "type": "biochemical"}, "MHV M^pro": {"biological_target": "MHV M^pro (Murine coronavirus, UniProt P0C6X9)", "sequence (P0C6X9 3334-3635)": "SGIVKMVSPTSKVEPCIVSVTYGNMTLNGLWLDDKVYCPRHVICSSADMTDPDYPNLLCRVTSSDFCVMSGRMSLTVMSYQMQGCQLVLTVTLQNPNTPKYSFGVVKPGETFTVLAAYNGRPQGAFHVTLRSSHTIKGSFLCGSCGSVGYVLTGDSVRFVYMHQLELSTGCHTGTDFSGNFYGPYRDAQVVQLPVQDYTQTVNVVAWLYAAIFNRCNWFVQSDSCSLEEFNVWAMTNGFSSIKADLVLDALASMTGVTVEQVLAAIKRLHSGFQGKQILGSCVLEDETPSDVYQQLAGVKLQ", "assay": "biochemical", "conditions": "pH 7.3, read-out: kobs/[I]"}}}
{"smiles": "CCOC(=O)/C=C/[C@H](C[C@@H]1CCNC1=O)NC(=O)[C@@H](CC(=O)[C@@H](NC(=O)c1cc(C)on1)C(C)C)Cc1ccc(F)cc1", "note": "[Ruprintrivir, ruprintrivir]", "values": [{"measurement": "inhibition of CoVs", "setting": "CoVs", "result": "did not show inhibition"}, {"measurement": "effect of prophylaxis in Phase II studies", "setting": "rhinovirus", "result": "reduced the proportion of subjects with positive viral cultures and viral titers"}, {"measurement": "aqueous solubility", "setting": "[1]", "result": "poor"}, {"measurement": "most common adverse effects", "setting": "[2]", "result": "blood-tinged mucus and nasal passage irritation"}, {"measurement": "tolerability", "setting": "[2]", "result": "well tolerated"}, {"measurement": "oral bioavailability", "setting": "[3]", "result": "low"}]}
{"smiles": "Cc1cc(C(=O)N[C@@H](C)C(=O)N[C@H](C(=O)N[C@@H](CC(C)C)C(=O)N[C@H](/C=C/C(=O)OCc2ccccc2)C[C@@H]2CCNC2=O)C(C)C)no1", "note": "[N3]", "values": [{"measurement": "IC50", "setting": "MHV-A59 [4]", "result": 2.7, "unit": "µM"}, {"measurement": "Ki", "setting": "HCoV-229E M^pro", "result": "1.67 ± 0.18", "unit": "µM"}, {"measurement": "k3", "setting": "HCoV-229E M^pro", "result": "18.0 ± 1.1 × 10^−3s^−1"}, {"measurement": "kinact/KI", "setting": "IBV M^pro; pH 7.3, read-out: kobs/[I]", "result": 7900, "unit": "M⁻¹ s⁻¹"}, {"measurement": "IC50", "setting": "FIPV", "result": 8.8, "unit": "µM"}, {"measurement": "inhibition of replication of TGEV", "setting": "TGEV", "result": "strongly inhibit"}, {"measurement": "inhibition of cell growth", "setting": "DBT cells", "result": 28.3, "unit": "%"}, {"measurement": "in vitro inactivation of all CoV M^pros tested", "setting": "CoV M^pros", "result": "fast in vitro inactivation"}, {"measurement": "inhibition of replication of SARS-CoV", "setting": "SARS-CoV", "result": "strongly inhibit"}, {"measurement": "IC50", "setting": "HCoV-229E", "result": 4, "unit": "µM"}, {"measurement": "kinact/KI", "setting": "TGEV M^pro; pH 7.3, read-out: kobs/[I]", "result": 13000, "unit": "M⁻¹ s⁻¹"}, {"measurement": "inhibition on M^pro of HCoV-HKU1", "setting": "M^pro of HCoV-HKU1", "result": "potent inhibition"}, {"measurement": "protection of DBT cells from MHV infection", "setting": "MHV-A59 [5]; 8 μM N3", "result": "sufficiently protected"}, {"measurement": "EC50", "setting": "MHV-A59 [5]; DBT cells, low-multiplicity (MOI = 0.01)", "result": 3.4, "unit": "µM"}, {"measurement": "kinact/KI", "setting": "FIPV M^pro", "result": 47000, "unit": "M⁻¹ s⁻¹"}, {"measurement": "Ki", "setting": "SARS-CoV M^pro", "result": "9 ± 0.8", "unit": "µM"}, {"measurement": "k3", "setting": "SARS-CoV M^pro", "result": "3.1 ± 0.5 × 10^−3s^−1"}, {"measurement": "inhibition on M^pro of HCoV-NL63", "setting": "M^pro of HCoV-NL63", "result": "potent inhibition"}, {"measurement": "kinact/KI", "setting": "MHV M^pro", "result": 4800, "unit": "M⁻¹ s⁻¹"}]}
{"smiles": "CCOC(=O)/C=C/[C@H](C[C@@H]1CCNC1=O)NC(=O)[C@H](CC(C)C)NC(=O)[C@@H](NC(=O)[C@H](C)NC(=O)c1cc(C)on1)C(C)C", "note": "[N1]", "values": [{"measurement": "Ki", "setting": "HCoV-229E M^pro", "result": "1.11 ± 0.09", "unit": "µM"}, {"measurement": "k3", "setting": "HCoV-229E M^pro", "result": "14.8 ± 0.7 × 10^−3s^−1"}, {"measurement": "Ki", "setting": "IBV M^pro", "result": "3.9 ± 0.9", "unit": "µM"}, {"measurement": "k3", "setting": "IBV M^pro; IBV M^pro, inactivation rate constant", "result": "14.5 ± 1.2 × 10^−3s^−1"}, {"measurement": "in vitro inactivation of all CoV M^pros tested", "setting": "CoV M^pros", "result": "fast in vitro inactivation"}, {"measurement": "k3, range over CoV M^pros", "setting": "CoV M^pros", "result": "4.1–50 × 10^−3s^−1"}, {"measurement": "Ki", "setting": "CoV M^pros; read-out: Ki, range over CoV M^pros", "result": "1.11 to 10.7", "unit": "µM"}, {"measurement": "Ki", "setting": "TGEV M^pro", "result": "3.2 ± 0.2", "unit": "µM"}, {"measurement": "k3", "setting": "TGEV M^pro", "result": "50 ± 3 × 10^−3s^−1"}, {"measurement": "kinact/KI", "setting": "FIPV M^pro", "result": 24000, "unit": "M⁻¹ s⁻¹"}, {"measurement": "kinact/KI", "setting": "MHV M^pro", "result": 2800, "unit": "M⁻¹ s⁻¹"}]}
